Measured values: patent US10562939B2, “Method for significantly increasing lentiviral production” (priority 2016, dated 2020)

Experiments:
[1] = tested on: HIV-1 virion production in 293A cells; experiment: Virus-like particle (VLP) detection, 293A cells transfected with pNL4.3luc, CA Western blot; settings: 20-40 micromolar, 48 hours, FIG. 4C
[2] = biological target: T1, interaction between HIV-1 MA and arginyl-tRNA synthetase (RRS) (Homo sapiens, UniProt P54136); experiment: Co-immunoprecipitation of RRS with HIV-1 MA (control); assay type: binding
T1 construct: endogenous in cells; host or cells: 293A-MA-FH cells (RRS endogenous; MA-flag stably expressed)
T1 sequence (P54136 1-660): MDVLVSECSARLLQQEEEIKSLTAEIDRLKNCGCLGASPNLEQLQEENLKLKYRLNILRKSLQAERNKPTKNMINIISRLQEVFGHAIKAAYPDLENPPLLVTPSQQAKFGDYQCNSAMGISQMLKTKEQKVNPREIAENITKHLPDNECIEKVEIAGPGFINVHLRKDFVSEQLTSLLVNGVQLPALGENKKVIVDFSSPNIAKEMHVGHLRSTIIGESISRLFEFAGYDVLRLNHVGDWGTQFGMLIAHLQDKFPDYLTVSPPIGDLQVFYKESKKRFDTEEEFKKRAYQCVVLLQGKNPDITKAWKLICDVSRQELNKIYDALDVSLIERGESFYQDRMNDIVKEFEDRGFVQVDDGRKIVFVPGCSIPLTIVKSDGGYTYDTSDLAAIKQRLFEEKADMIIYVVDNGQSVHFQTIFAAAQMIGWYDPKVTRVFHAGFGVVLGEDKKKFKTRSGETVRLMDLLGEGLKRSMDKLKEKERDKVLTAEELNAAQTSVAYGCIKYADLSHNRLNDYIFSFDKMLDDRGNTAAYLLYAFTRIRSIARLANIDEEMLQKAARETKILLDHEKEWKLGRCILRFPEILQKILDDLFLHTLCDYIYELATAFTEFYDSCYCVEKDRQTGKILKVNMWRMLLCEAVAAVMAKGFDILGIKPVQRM
Method: As a control, the interaction between MA and another MA-interacting protein, arginyl-tRNA synthetase (RRS), a subunit of the aminoacyl-tRNA synthetase complex, was also evaluated. The coimmunoprecipitation of RRS and HIV-1 MA was not affected by addition of myristic acid (FIG. 1D).

[3] = biological target: T2, human HO-2 (Homo sapiens, UniProt P30519); experiment: Fatty acid binding to HO-2 (crystal structure); settings: FIG. 2E
T2 construct: The HO-2 gene fragment encoding amino acid residues 30-242 was cloned into a pET28a vector; made in house; host or cells: Escherichia coli BL21 (DE3) Star
T2 sequence (P30519 30-242): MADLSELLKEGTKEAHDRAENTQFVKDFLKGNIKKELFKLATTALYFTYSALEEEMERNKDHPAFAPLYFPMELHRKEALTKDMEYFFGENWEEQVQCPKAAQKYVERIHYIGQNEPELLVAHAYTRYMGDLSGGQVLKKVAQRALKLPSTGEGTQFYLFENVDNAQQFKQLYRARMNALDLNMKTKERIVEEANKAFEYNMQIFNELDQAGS
Method: To make the myristate complex, sodium myristate was dissolved in water at 50° C., and mixed with 20 mg/ml protein solution and incubated at 37° C. water bath for 30 min. The complex solution was then used to set up crystallization by mixing with (0.1 M Bis-Tris, (pH 5.5), 28% (w/v) polyethylene glycol 550 monomethyl ether, and 5 mM MgCl2). Crystals were directly flash-frozen in liquid nitrogen.
The laurate complex crystals were obtained by soaking apo crystals in well solution with 5 mM sodium laurate overnight and transferred to well solution with 35% (w/v) of precipitant before flash-frozen in liquid nitrogen. The crystals belong to space group P212121 and there are four protein molecules in the asymmetric unit.
X-ray diffraction data sets were collected at beamline 24-ID-E of the Advanced Photon Source (APS). The data were processed with the HKL package (Otwinowski and Minor, 1997). The structures were solved by molecular replacement using entry 2Q32 from the Protein Data Bank as the model. The myristate and laurate were manually added with Coot (Emsley and Cowtan, 2004) and refined with Phenix (Adams et al., 2002).
The crystal structure was also determined at 2.1 Å resolution of human HO-2 in complex with the C12 fatty acid laurate (FIG. 2E, Table 1B). The crystal was isomorphous to that of the myristate complex. […]

## C=CC1=C(C)C2=Cc3c(C=C)c(C)c4[n]3[Sn]([Cl])([Cl])[n]3c(c(C)c(CCC(=O)O)c3=CC3=NC(=C4)C(C)=C3CCC(=O)O)=CC1=N2 [SnPPIX, tin protoporphyrin IX dichloride]
[1]
  virus yield (CA levels in virions): dramatic increases in virus yield
[2]; increasing concentrations of SnPPIX, FIG. 4B
  interaction between HIV-1 MA and RRS: no effect

## CCCCCCCCCCCCCC(=O)O [myristic acid]
[2]; myristic acid added to cell lysates, FIG. 1D
  coimmunoprecipitation of RRS and HIV-1 MA: not affected

## CCCCCCCCCCCC(=O)O [laurate]
[3]
  binding to HO-2: could indeed bind
